Results reported in PMC5384453, “A multi-functional PEGylated gold(III) compound: potent anti-cancer properties and self-assembly into nanostructures for drug co-delivery” (Chemical Science, 2016).

Legend:
CCD-19Lu = test: In vitro cytotoxicity, MTT assay; assay type: cell-based, human; conditions: 72 h incubation
Procedure: (§1) In vitro cytotoxicity assays. HeLa, NCI-H460, HCT116, A2780, A2780cis and
(§2) cells), respectively, were seeded in 96-well plates for 24 h. The cells were then treated with a serial concentration of gold(III) complexes and incubated at 37 °C under a 5% CO2 atmosphere for 72 h. For nanostructures of 1, 2 and NC1, they were dissolved in
(§3) cisplatin were dissolved in culture medium-DMSO solution mixture (99:1, v/v).
(§4) After incubation for 72 h, MTT in PBS solution (5 mg/mL, 10 μL) was added to each well. The plates were incubated at 37 °C under a 5% CO2 atmosphere for another 4 h, and the cells were lysed by the addition of SDS solution (10%, w/w) with 0.01 M HCl (100 μL). After incubation in dark at 37 °C overnight, the cell viability after treatment was determined by a microtitre plate reader monitoring at the absorbance at 590 nm,

A2780adr = test: In vitro cytotoxicity, MTT assay; assay type: cell-based, human; conditions: for IC50: A2780adr, MTT assay, 72 h incubation, read-out: IC50; for Resistance found in A2780adr: IC50 of A2780adr cells / IC50 of A2780 cells; for Toxicity toward cancer cells compared to that toward MIHA cells, A2780adr: IC50 of MIHA cells / IC50 of A2780adr; for Toxicity toward cancer cells compared to that toward NCM460 cells, A2780adr: IC50 of NCM460 cells / IC50 of A2780adr
Procedure: as §1, §2, §3, §4

NCM460 = test: In vitro cytotoxicity, MTT assay; assay type: cell-based, human; conditions: 72 h incubation
Procedure: as §1, §2, §3, §4

A2780 = test: In vitro cytotoxicity, MTT assay; assay type: cell-based, human; conditions: for IC50: A2780, MTT assay, 72 h incubation; for Toxicity toward cancer cells compared to that toward NCM460 cells, A2780: IC50 of NCM460 cells / IC50 of A2780
Procedure: as §1, §2, §3, §4

A2780cis = test: In vitro cytotoxicity, MTT assay; assay type: cell-based, human; conditions: for IC50: A2780cis, MTT assay, 72 h incubation; for Resistance found in A2780cis: IC50 of A2780cis cells / IC50 of A2780 cells; for Toxicity toward cancer cells compared to that toward NCM460 cells, A2780cis: IC50 of NCM460 cells / IC50 of A2780cis
Procedure: as §1, §2, §3, §4

HCT116 = test: In vitro cytotoxicity, MTT assay; assay type: cell-based, human; conditions: for IC50: HCT116, MTT assay, 72 h incubation; for Toxicity toward cancer cells compared to that toward MIHA cells, HCT-116: IC50 of MIHA cells / IC50 of HCT-116; for Toxicity toward cancer cells compared to that toward NCM460 cells, HCT-116: IC50 of NCM460 cells / IC50 of HCT-116
Procedure: as §1, §2, §3, §4

NCI-H460 = test: In vitro cytotoxicity, MTT assay; assay type: cell-based, human; conditions: for Toxicity toward cancer cells compared to that toward MIHA cells, NCI-H460: IC50 of MIHA cells / IC50 of NCI-H460; for Toxicity toward cancer cells compared to that toward NCM460 cells, NCI-H460: IC50 of NCM460 cells / IC50 of NCI-H460; for IC50: NCI-H460, MTT assay, 72 h incubation
Procedure: as §1, §2, §3, §4

HeLa = test: In vitro cytotoxicity, MTT assay; assay type: cell-based, human; conditions: for IC50: HeLa, MTT assay, 72 h incubation, read-out: IC50; for Toxicity toward cancer cells compared to that toward MIHA cells, HeLa: IC50 of MIHA cells / IC50 of HeLa; for Toxicity toward cancer cells compared to that toward NCM460 cells, HeLa: IC50 of NCM460 cells / IC50 of HeLa
Procedure: as §1, §2, §3, §4

HCT116 cells = test: Hydrolysis in live cells, UPLC-QTOF-MS of cell lysates; assay type: in vitro ADME, human; conditions: 2 μM, 24 h
Procedure: Hydrolysis of the gold(III) complexes in live cells was examined by ultra-performance liquid chromatography coupled quadrupole-time-of-flight mass spectrometry (UPLC-QTOF-MS). Colon cancer cells (HCT116) were treated with 1, 2 and 3 (2 μM) for 24 h, harvested and lysed in an acetonitrile–water solution mixture (3 : 1, v/v) prior to UPLC-QTOF-MS analysis. […] Therefore, the peak is attributable to the major metabolite of 1 formed in HCT116 cells. […] This should be attributable to the higher stability of the amide bond versus the ester bond in vitro. […]
which reflected the amount of blue formazan formed. IC50 values were then determined by CompuSyn S6 from three independent measurements.
Study on the release of hydrolyzed product from 1 and 2 in aqueous buffer solutions by ICP-MS. The nanostructures of gold(III) complex was dissolved in PBS solution (pH 7.4; 1 mg/mL) or sodium acetate buffer solution (pH 4.0; 1 mg/mL) and was dialyzed against 1 L of the buffer solution at 37 °C using semipermeable minidialysis tubes (molecular weight cut-off = 1,000 Da; GE Healthcare). At a predetermined time, an aliquot of solution was removed and dissolved in HNO3/HCl solution mixture (9:1, v/v; volume of aliquot: volume of acid mixture = 1:3). The solution mixture was heated at 65 °C with shaking overnight, and the gold content was determined by ICP-MS from three independent aliquots.
Study on the hydrolysis of 1 and 2 in aqueous buffer solutions by 1H NMR. […]
The flow rate was 0.4 mL/min and the injection volume was 2 µL. The UPLC-QTOF-MS chromatograms of 1, 3, 4 and solvent control in acetonitrile were also recorded for the interpretation of UPLC-QTOF-MS chromatograms of the cell lysate. […]
Au1a (2 µM; with 1 vol% DMSO). […] An aliquot of the cell suspension was subjected to Bio-rad protein assay with a microtitre plate reader at the absorbance at 595 nm, using bovine serum albumin as the protein standard. […] The solution mixture was heated at 65 °C with shaking overnight, and the gold content was determined by ICP-MS. […]

MIHA = test: In vitro cytotoxicity, MTT assay; assay type: cell-based; conditions: MTT assay, 72 h incubation, read-out: IC50
Procedure: as §1, §2, §3, §4

Molecule | IC50 (CCD-19Lu) | IC50 (A2780adr) | Resistance found in A2780adr (A2780adr) | Toxicity toward cancer cells compared to that toward MIHA cells, A2780adr (A2780adr) | Toxicity toward cancer cells compared to that toward NCM460 cells, A2780adr (A2780adr) | IC50 (NCM460) | IC50 (A2780) | Toxicity toward cancer cells compared to that toward NCM460 cells, A2780 (A2780) | IC50 (A2780cis) | Resistance found in A2780cis (A2780cis) | Toxicity toward cancer cells compared to that toward NCM460 cells, A2780cis (A2780cis) | IC50 (HCT116) | Toxicity toward cancer cells compared to that toward MIHA cells, HCT-116 (HCT116) | Toxicity toward cancer cells compared to that toward NCM460 cells, HCT-116 (HCT116) | Toxicity toward cancer cells compared to that toward MIHA cells, NCI-H460 (NCI-H460) | Toxicity toward cancer cells compared to that toward NCM460 cells, NCI-H460 (NCI-H460) | IC50 (NCI-H460) | IC50 (HeLa) | Toxicity toward cancer cells compared to that toward MIHA cells, HeLa (HeLa) | Toxicity toward cancer cells compared to that toward NCM460 cells, HeLa (HeLa) | further results
COC(=O)c1ccc(C2=C3C=CC(=N3)C(c3ccccc3)=c3ccc4[n]3[Au+][n]3c(ccc32)C(c2ccccc2)=C2C=CC(=N2)C=4c2ccccc2)cc1.[Cl-] [Compound 3, [Au(TPP–COOCH3)]^+] | 0.73 ± 0.04 µM | 0.65 ± 0.06 µM | 3.23 | 1.1 | 0.2 | 0.13 ± 0.01 µM | 0.23 ± 0.02 µM | 0.7 | 0.19 ± 0.03 µM | 1.0 | 0.7 | 0.09 ± 0.01 µM | 7.7 | 1.4 | 7.0 | 1.3 | 0.11 ± 0.01 µM | 0.82 ± 0.12 µM | 0.9 | 0.2 | Toxicity toward cancer cells compared to that toward CCD-19Lu cells, A2780adr (A2780adr; IC50 of CCD-19Lu cells / IC50 of A2780adr): 1.1; Toxicity toward cancer cells compared to that toward CCD-19Lu cells, A2780 (A2780; IC50 of CCD-19Lu cells / IC50 of A2780): 3.2; Toxicity toward cancer cells compared to that toward CCD-19Lu cells, A2780cis (A2780cis; IC50 of CCD-19Lu cells / IC50 of A2780cis): 3.8; Toxicity toward cancer cells compared to that toward CCD-19Lu cells, HCT-116 (HCT116; IC50 of CCD-19Lu cells / IC50 of HCT-116): 8.1; Toxicity toward cancer cells compared to that toward CCD-19Lu cells, NCI-H460 (NCI-H460; IC50 of CCD-19Lu cells / IC50 of NCI-H460): 6.6; Toxicity toward cancer cells compared to that toward CCD-19Lu cells, HeLa (HeLa; IC50 of CCD-19Lu cells / IC50 of HeLa): 0.9; hydrolysis / release of [Au(TPP–COOH)]+ in cells (HCT116 cells): hydrolysis of the ester bond was also observed; IC50 (MIHA): 0.74 ± 0.09 µM
[Au(TPP–CONH–PEG5000–OCH3)]Cl [Compound 2] | > 100 µM | > 120 µM | > 9.09 | < 1.0 | < 0.6 | 71 ± 6.42 µM | 13.4 ± 0.18 µM | 5.3 | 47.2 ± 8.62 µM | 3.57 | 1.5 | 8.24 ± 0.22 µM | 14.0 | 8.6 | 4.7 | 2.9 | 24.7 ± 4.62 µM | 46.5 ± 4.4 µM | 2.5 | 1.5 | Toxicity toward cancer cells compared to that toward MIHA cells, A2780 (A2780; IC50 of MIHA cells / IC50 of A2780): 8.6; Toxicity toward cancer cells compared to that toward MIHA cells, A2780cis (A2780cis; IC50 of MIHA cells / IC50 of A2780cis): 2.4; hydrolysis / release of [Au(TPP–COOH)]+ in cells (HCT116 cells): no release of [Au(TPP–COOH)]^+ can be found; IC50 (MIHA): 115 ± 17.1 µM
